Patent publication US7732463B2, “4-(2-phenylsulfanyl-phenyl)-piperidine derivatives as serotonin reuptake inhibitors” (H. Lundbeck A/S, priority 2003, dated 2010)

How the values were obtained:
[1] = target: human 5-HT2C-VSV receptors (Homo sapiens, UniProt P28335, I156V/I160V/N158S); type: binding
[2] = test system: hippocampal 5-HT; settings: rats, microdialysis, combined with citalopram; cited from earlier work

Sequence of human 5-HT2C-VSV receptors (P28335 33-458 I156V/N158S/I160V limits assumed): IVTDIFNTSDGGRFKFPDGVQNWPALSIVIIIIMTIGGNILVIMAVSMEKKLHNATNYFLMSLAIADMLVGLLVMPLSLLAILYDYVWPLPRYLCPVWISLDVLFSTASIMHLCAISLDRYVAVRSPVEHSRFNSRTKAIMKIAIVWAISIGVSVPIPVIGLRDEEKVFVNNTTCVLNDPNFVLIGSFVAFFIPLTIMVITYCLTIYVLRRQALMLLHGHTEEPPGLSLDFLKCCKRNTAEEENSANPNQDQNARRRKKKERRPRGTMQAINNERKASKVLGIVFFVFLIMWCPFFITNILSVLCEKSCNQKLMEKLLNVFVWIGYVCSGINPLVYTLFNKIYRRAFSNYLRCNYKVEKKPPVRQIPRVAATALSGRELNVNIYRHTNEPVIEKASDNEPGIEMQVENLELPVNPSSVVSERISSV

## Fc1cccc(Sc2cccc(F)c2C2CCNCC2)c1 [3d11, 4-[2-(3-Fluoro-phenylsulfanyl)-6-fluoro-phenyl]-piperidine]
[1]
  affinity to the 5HT2C receptor: good affinity

## Fc1ccc(Sc2ccc(F)cc2C2CCNCC2)c(F)c1 [2t, 4-[2-(2,4-Difluoro-phenylsulfanyl)-5-fluoro-phenyl]-piperidine]
[1]
  affinity to the 5HT2C receptor: good affinity

## Fc1ccc(Sc2ccc(F)cc2C2CCNCC2)cc1 [2j, 4-[2-(4-Fluoro-phenylsulfanyl)-5-fluoro-phenyl]-piperidine]
[1]
  affinity to the 5HT2C receptor: good affinity

## Cc1ccc(Sc2c(F)cccc2C2CCNCC2)c(C)c1 [2u, 4-[2-(2,4-Dimethyl-phenylsulfanyl)-3-fluoro-phenyl]-piperidine]
[1]
  affinity to the 5HT2C receptor: good affinity

## Fc1ccc(Sc2ccc(Br)cc2F)c(C2CCNCC2)c1 [2x, 4-[2-(4-Bromo-2-fluoro-phenylsulfanyl)-5-fluoro-phenyl]-piperidine]
[1]
  affinity to the 5HT2C receptor: good affinity

## Fc1ccc(Sc2ccccc2C2CCNCC2)c(F)c1 [3a4, 4-[2-(2,4-Difluoro-phenylsulfanyl)-phenyl]-piperidine]
[1]
  affinity to the 5HT2C receptor: good affinity

## COc1ccc(Sc2cc(F)ccc2C2CCNCC2)cc1 [1e, 4-[2-(4-Methoxy-phenylsulfanyl)-4-fluoro-phenyl]-piperidine]
[1]
  affinity to the 5HT2C receptor: good affinity

## COc1ccc(Sc2cccc(F)c2C2CCNCC2)c(F)c1 [3d23, 4-[2-(2-Fluoro-4-methoxy-phenylsulfanyl)-6-fluoro-phenyl]-piperidine]
[1]
  affinity to the 5HT2C receptor: good affinity

## Fc1ccc(Sc2cccc(F)c2C2CCNCC2)cc1 [3d27, 4-[2-(4-Fluoro-phenylsulfanyl)-6-fluoro-phenyl]-piperidine]
[1]
  affinity to the 5HT2C receptor: good affinity

## Fc1cccc(Sc2cccc(Cl)c2)c1C1CCNCC1 [3d10, 4-[2-(3-Chloro-phenylsulfanyl)-6-fluoro-phenyl]-piperidine]
[1]
  affinity to the 5HT2C receptor: good affinity

## Fc1ccc(Sc2cccc(F)c2C2CCNCC2)c(F)c1 [3d24, 4-[2-(2,4-Difluoro-phenylsulfanyl)-6-fluoro-phenyl]-piperidine]
[1]
  affinity to the 5HT2C receptor: good affinity

## Clc1ccc(Sc2ccccc2C2CCNCC2)cc1 [2a]
[1]
  affinity to the 5HT2C receptor: good affinity

## Cc1ccc(Sc2ccc(C)cc2C2CCNCC2)cc1 [1f, 4-[2-(4-Methyl-phenylsulfanyl)-5-methyl-phenyl]-piperidine]
[1]
  affinity to the 5HT2C receptor: good affinity

## Cc1ccc(Sc2cccc(F)c2C2CCNCC2)cc1 [3d18, 4-[2-(4-Methyl-phenylsulfanyl)-6-fluoro-phenyl]-piperidine]
[1]
  affinity to the 5HT2C receptor: good affinity

## COc1ccc(Sc2ccccc2C2CCNCC2)cc1 [1b, 4-[2-(4-Methoxy-phenylsulfanyl)-phenyl]-piperidine]
[1]
  affinity to the 5HT2C receptor: good affinity

## Cc1ccc(Sc2cccc(F)c2C2CCNCC2)c(F)c1 [3d21, 4-[2-(2-Fluoro-4-methyl-phenylsulfanyl)-6-fluoro-phenyl]-piperidine]
[1]
  affinity to the 5HT2C receptor: good affinity

## COc1ccc(Sc2ccc(F)cc2C2CCNCC2)c(F)c1 [2a3, 4-[2-(2-Fluoro-4-methoxy-phenylsulfanyl)-5-fluoro-phenyl]-piperidine]
[1]
  affinity to the 5HT2C receptor: good affinity

## Cc1ccc(Sc2ccc(F)cc2C2CCNCC2)c(F)c1 [2q, 4-[2-(2-Fluoro-4-methyl-phenylsulfanyl)-5-fluoro-phenyl]-piperidine]
[1]
  affinity to the 5HT2C receptor: good affinity

## COc1cc(Sc2cccc(F)c2C2CCNCC2)ccc1F [3d13, 4-[2-(4-Fluoro-3-methoxy-phenylsulfanyl)-6-fluoro-phenyl]-piperidine]
[1]
  affinity to the 5HT2C receptor: good affinity

## COc1ccc(Sc2c(F)cccc2C2CCNCC2)cc1 [2d, 4-[2-(4-Methoxy-phenylsulfanyl)-3-fluoro-phenyl]-piperidine]
[1]
  affinity to the 5HT2C receptor: good affinity

## COc1ccc(Sc2ccc(F)cc2)c(C2CCNCC2)c1 [3c2, 4-[2-(4-Fluoro-phenylsulfanyl)-5-methoxy-phenyl]-piperidine]
[1]
  affinity to the 5HT2C receptor: good affinity

## COc1ccc(Sc2ccc(C)cc2C2CCNCC2)cc1 [1i, 4-[2-(4-Methoxy-phenylsulfanyl)-5-methyl-phenyl]-piperidine]
[1]
  affinity to the 5HT2C receptor: good affinity

## COc1ccc(Sc2cccc(F)c2C2CCNCC2)c(Cl)c1 [3d25, 4-[2-(2-Chloro-4-methoxy-phenylsulfanyl)-6-fluoro-phenyl]-piperidine]
[1]
  affinity to the 5HT2C receptor: good affinity

## Fc1ccc(Sc2ccc(Cl)cc2F)c(C2CCNCC2)c1 [2p, 4-[2-(4-Chloro-2-fluoro-phenylsulfanyl)-5-fluoro-phenyl]-piperidine]
[1]
  affinity to the 5HT2C receptor: good affinity

## Cc1ccc(Sc2ccc(F)cc2C)c(C2CCNCC2)c1 [1h, 4-[2-(4-Fluoro-2-methyl-phenylsulfanyl)-5-methyl-phenyl]-piperidine]
[1]
  affinity to the 5HT2C receptor: good affinity

## COc1ccc(Sc2cccc(F)c2C2CCNCC2)cc1 [3d26, 4-[2-(4-Methoxy-phenylsulfanyl)-6-fluoro-phenyl]-piperidine]
[1]
  affinity to the 5HT2C receptor: good affinity

## COc1ccc(NC(=O)c2ccc(-c3ccc(-c4nnc(C)o4)cc3C)cc2)cc1N1CCN(C)CC1 [GMC 2-29]
[2]
  increase of hippocampal 5-HT by citalopram: potentiated

## Fc1cccc(Sc2ccc(Cl)cc2)c1C1CCNCC1 [3d19, 4-[2-(4-Chloro-phenylsulfanyl)-6-fluoro-phenyl]-piperidine]
[1]
  affinity to the 5HT2C receptor: good affinity

## Fc1cc(Cl)ccc1Sc1cccc(F)c1C1CCNCC1 [3d15, 4-[2-(4-Chloro-2-fluoro-phenylsulfanyl)-6-fluoro-phenyl]-piperidine]
[1]
  affinity to the 5HT2C receptor: good affinity

## Fc1ccc(Sc2cc(F)ccc2C2CCNCC2)cc1 [3f3, 4-[2-(4-Fluoro-phenylsulfanyl)-4-fluoro-phenyl]-piperidine]
[1]
  affinity to the 5HT2C receptor: good affinity

## COc1ccc(Sc2cccc(F)c2C2CCNCC2)c(C)c1 [3d4, 4-[2-(4-Methoxy-2-methyl-phenylsulfanyl)-6-fluoro-phenyl]-piperidine]
[1]
  affinity to the 5HT2C receptor: good affinity

## COc1ccc(Sc2ccc(F)cc2C2CCNCC2)cc1 [2b, 4-[2-(4-Methoxy-phenylsulfanyl)-5-fluoro-phenyl]-piperidine]
[1]
  affinity to the 5HT2C receptor: good affinity

## Fc1cccc(Sc2ccc(C(F)(F)F)cc2)c1C1CCNCC1 [3d16, 4-[2-(4-Trifluoromethyl-phenylsulfanyl)-6-fluoro-phenyl]-piperidine]
[1]
  affinity to the 5HT2C receptor: good affinity

## Fc1ccc(Sc2ccccc2C2CCNCC2)c(Cl)c1 [3a2, 4-[2-(2-Chloro-4-fluoro-phenylsulfanyl)-phenyl]-piperidine]
[1]
  affinity to the 5HT2C receptor: good affinity

## Fc1cccc(Sc2cccc(Cl)c2F)c1C1CCNCC1 [3d17, 4-[2-(3-Chloro-2-fluoro-phenylsulfanyl)-6-fluoro-phenyl]-piperidine]
[1]
  affinity to the 5HT2C receptor: good affinity

## Cc1ccc(Sc2cccc(F)c2C2CCNCC2)cc1F [3d7, 4-[2-(3-Fluoro-4-methyl-phenylsulfanyl)-6-fluoro-phenyl]-piperidine]
[1]
  affinity to the 5HT2C receptor: good affinity

## Cc1ccc(Sc2ccc(Cl)cc2)c(C2CCNCC2)c1 [2g, 4-[2-(4-Chloro-phenylsulfanyl)-5-methyl-phenyl]-piperidine]
[1]
  affinity to the 5HT2C receptor: good affinity

## Fc1ccccc1Sc1cccc(F)c1C1CCNCC1 [3d12, 4-[2-(2-Fluoro-phenylsulfanyl)-6-fluoro-phenyl]-piperidine]
[1]
  affinity to the 5HT2C receptor: good affinity

## Fc1ccc(C2CCNCC2)c(Sc2ccc(Cl)cc2)c1 [1d, 4-[2-(4-Chloro-phenylsulfanyl)-4-fluoro-phenyl]-piperidine]
[1]
  affinity to the 5HT2C receptor: good affinity

## Fc1ccc(C2CCNCC2)c(Sc2ccccc2Cl)c1 [3f2, 4-[2-(2-Chloro-phenylsulfanyl)-4-fluoro-phenyl]-piperidine]
[1]
  affinity to the 5HT2C receptor: good affinity
